Values belong to the molecule of their own block, whether it stands above or below them.
What was measured:
[1] = target: T1, GAL4-human ERRα LBD fusion (Homo sapiens, UniProt P11474); assay: Transient transfection luciferase assay, GAL4-human ERRα LBD fusion with Gal4-TK-Luc reporter in HeLa cells; assay type: cell-based; conditions: pM-ERRα LBD, 24 h, mean ± SD
T1 construct: GAL4-human ERRα LBD fusion expression plasmid; expressed in transfected cells; host or cells: HeLa
T1 sequence (P11474 193-421 limits assumed): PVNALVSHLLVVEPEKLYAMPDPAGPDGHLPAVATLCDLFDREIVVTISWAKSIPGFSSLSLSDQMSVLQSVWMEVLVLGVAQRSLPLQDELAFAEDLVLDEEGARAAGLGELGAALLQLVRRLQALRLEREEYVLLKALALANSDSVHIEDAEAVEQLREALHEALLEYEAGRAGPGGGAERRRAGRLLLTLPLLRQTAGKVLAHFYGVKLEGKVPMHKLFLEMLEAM
Experimental: Referring to FIG. 2, we have also prepared GAL4-ERRα expression plasmid and luciferase reporter plasmids with GAL4 response element. This is a more sensitive assay method than that using pSG5-ERRα and ERE luciferase reporter plasmids.
(§1) To evaluate the functional significance of the interaction of chalcones with ERRα, we incubated these compounds with HeLa cells which were transiently transfected with human ERRα expression plasmid and a luciferase reporter plasmid containing SF1 binding site. […] In order to confirm the results above, HeLa cells were transiently transfected with GAL4-human ERRα LBD fusion expression plasmid and a luciferase reporter plasmid containing GAL4 binding site. […] Most of the compounds, however, have similar IC50 value, and have a similar potency.
(§2) Referring to FIG. 2, HeLa cells were cotransfected with pM-ERRα LBD (0.5 μg) and luciferase reporter plasmid containing GAL4 binding site and TK promoter (0.25 μg). The transfected cells were incubated with Compound No. 1-9 for 24 h. After cells were washed with 1× PBS, luciferase activity was measured. Values represent the mean±SD.

[2] = target: T2, ERβ (Homo sapiens, UniProt Q92731); assay: Transient transfection luciferase assay with pCI-ERb and ERE-SV40 reporter in HeLa cells, with 100 pM estradiol; assay type: cell-based
T2 construct: expressed in transfected cells; host or cells: HeLa
T2 sequence (Q92731 whole entry, species assumed): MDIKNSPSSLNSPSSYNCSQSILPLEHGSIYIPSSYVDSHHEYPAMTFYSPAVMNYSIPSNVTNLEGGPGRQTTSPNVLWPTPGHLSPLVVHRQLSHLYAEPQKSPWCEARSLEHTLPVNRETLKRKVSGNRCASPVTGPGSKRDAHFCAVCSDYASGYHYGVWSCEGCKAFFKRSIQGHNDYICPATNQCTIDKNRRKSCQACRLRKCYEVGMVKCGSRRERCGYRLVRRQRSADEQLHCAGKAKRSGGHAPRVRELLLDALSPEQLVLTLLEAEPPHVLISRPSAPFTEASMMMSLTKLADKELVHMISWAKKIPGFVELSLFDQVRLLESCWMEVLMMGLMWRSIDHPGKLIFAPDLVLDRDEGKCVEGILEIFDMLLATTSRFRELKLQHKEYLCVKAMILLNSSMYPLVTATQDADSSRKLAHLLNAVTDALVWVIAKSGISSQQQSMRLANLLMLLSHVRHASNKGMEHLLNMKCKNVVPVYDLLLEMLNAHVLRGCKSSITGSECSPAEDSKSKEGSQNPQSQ

[3] = target: T3, ERα (Homo sapiens, UniProt P03372); assay: Transient transfection luciferase assay with pSG5-ERa and ERE-SV40 reporter in HeLa cells, with 100 pM estradiol; assay type: cell-based
T3 construct: expressed in transfected cells; host or cells: HeLa
T3 sequence (P03372 1-595): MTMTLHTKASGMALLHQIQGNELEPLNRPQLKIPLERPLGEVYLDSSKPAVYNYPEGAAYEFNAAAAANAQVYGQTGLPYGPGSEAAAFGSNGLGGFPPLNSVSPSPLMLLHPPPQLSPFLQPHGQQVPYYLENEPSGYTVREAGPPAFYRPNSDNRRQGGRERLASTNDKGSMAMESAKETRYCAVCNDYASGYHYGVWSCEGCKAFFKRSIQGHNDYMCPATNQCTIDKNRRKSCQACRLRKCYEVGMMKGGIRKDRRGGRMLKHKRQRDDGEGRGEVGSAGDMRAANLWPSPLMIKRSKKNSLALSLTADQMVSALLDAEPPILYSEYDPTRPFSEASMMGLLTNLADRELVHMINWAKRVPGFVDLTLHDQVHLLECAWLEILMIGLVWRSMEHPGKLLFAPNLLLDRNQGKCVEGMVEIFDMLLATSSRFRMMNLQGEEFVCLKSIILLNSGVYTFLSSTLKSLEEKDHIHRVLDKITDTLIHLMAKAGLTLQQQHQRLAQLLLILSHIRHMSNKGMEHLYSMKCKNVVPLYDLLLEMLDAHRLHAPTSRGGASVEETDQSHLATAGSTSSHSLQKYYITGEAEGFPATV

[4] = target: T4, ERRβ (Homo sapiens, UniProt O95718); assay: Transient transfection luciferase assay with pSG5-ERRb and SF1-SV40 reporter in HeLa cells; assay type: cell-based
T4 construct: expressed in transfected cells; host or cells: HeLa
T4 sequence (O95718 1-433): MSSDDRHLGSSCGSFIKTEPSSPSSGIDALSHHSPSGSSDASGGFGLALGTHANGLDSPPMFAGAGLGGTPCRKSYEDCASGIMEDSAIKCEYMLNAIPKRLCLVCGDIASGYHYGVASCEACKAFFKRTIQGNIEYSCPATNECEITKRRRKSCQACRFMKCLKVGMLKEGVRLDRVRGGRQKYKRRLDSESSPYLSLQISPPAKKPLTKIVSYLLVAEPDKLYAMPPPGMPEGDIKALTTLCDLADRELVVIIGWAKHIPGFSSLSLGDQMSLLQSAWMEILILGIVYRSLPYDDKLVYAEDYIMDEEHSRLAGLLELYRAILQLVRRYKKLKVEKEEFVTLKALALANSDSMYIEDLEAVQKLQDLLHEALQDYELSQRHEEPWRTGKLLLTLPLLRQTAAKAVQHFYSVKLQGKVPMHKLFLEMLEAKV

[5] = target: T5, human ERRα-1 (Homo sapiens, UniProt P11474); assay: Transient transfection luciferase assay, full length human ERRα with SF1-SV40-Luc reporter in HeLa cells; assay type: cell-based; conditions: HeLa cells
T5 construct: expressed in transfected cells; host or cells: HeLa
T5 sequence (P11474 1-423): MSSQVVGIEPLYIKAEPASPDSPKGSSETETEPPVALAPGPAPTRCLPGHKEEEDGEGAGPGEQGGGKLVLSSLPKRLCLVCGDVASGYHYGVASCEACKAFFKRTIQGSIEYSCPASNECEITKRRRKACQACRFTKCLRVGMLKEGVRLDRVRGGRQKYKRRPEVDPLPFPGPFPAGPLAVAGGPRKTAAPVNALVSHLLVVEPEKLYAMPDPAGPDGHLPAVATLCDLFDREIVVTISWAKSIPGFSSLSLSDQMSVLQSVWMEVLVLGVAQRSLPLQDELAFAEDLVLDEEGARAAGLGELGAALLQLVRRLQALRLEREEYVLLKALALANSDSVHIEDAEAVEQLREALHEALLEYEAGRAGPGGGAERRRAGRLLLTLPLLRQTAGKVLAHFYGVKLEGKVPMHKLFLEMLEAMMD
Experimental: HeLa cells were cultured in MEM Earle's salts medium supplemented with 5% charcoal/dextran-treated fetal bovine serum. Cells were then divided and cultured in 6-well plates until 80% confluence was achieved. The cells were next transfected with 4 μg Lipofectin. An equal amount of total DNA was used in all transfections by including appropriate amounts of the empty vector, pSG5, in addition to specific amounts of pSG5-ERRα and luciferase reporter plasmids (ERRE (ERRα recognizes an ERE half site)-containing reporter and aromatase promoter I.3-containing reporter). Following an overnight incubation, the medium containing Lipofectin and DNA was removed, and the cells cultured in a growth medium containing 5% charcoal/dextran-treated fetal bovine serum with or without ligands. After a 24-hour incubation, the cells was harvested from the plates by scraping, and the luciferase activities in the cell lysates (with the same amounts of protein) was measured according to the manufacturer's instructions (Promega). All experiments were performed in triplicate.
as §1
as §2, with “1,” for “2,”, “pSG5-ERRα” for “pM-ERRα LBD”, “SF1” for “GAL4”, “SV40” for “TK”

[6] = target: T6, ERRγ (Homo sapiens, UniProt P62508); assay: Transient transfection luciferase assay with pSG5-ERRg and SF1-SV40 reporter in HeLa cells; assay type: cell-based
T6 construct: expressed in transfected cells; host or cells: HeLa
T6 sequence (P62508 1-458): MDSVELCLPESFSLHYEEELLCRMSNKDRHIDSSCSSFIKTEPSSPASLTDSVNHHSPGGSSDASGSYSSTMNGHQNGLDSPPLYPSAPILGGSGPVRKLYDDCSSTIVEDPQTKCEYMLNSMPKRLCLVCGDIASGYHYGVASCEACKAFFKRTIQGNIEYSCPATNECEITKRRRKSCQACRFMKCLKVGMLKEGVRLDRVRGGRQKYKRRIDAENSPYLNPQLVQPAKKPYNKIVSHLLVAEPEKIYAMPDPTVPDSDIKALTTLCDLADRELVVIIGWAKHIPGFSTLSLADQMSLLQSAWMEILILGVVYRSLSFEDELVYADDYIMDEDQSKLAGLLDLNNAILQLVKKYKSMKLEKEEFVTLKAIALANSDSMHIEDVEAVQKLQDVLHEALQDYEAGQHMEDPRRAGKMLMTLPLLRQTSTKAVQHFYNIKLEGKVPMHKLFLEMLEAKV

[7] = target: T7, ERRα (Homo sapiens, UniProt P11474); assay: Relative luciferase activity for ERRα (FIG. 8); assay type: cell-based; parameters: endogenous in cells; host or cells: SK-BR-3
T7 sequence (P11474 1-423): T5 sequence (P11474 1-423)

[8] = target: T4, ERRβ; assay: Relative luciferase activity for ERRβ (FIG. 8); assay type: cell-based
[9] = target: T6, ERRγ; assay: Relative luciferase activity for ERRγ (FIG. 8); assay type: cell-based
[10] = test system: ER; conditions: cited from earlier work
[11] = HeLa cells, in the presence of 100 pM of estradiol, 24 h
[12] = HeLa cells, 24 h, average of at least two experiments

IC50 [1]: 2e+06 ± 700000 pM
IC50 [2, 11]: 15 µM
Antagonistic properties on ERb (in words) ([2]; transient transfection): showed antagonistic properties
IC50 [3, 11]: 7.8 µM
Antagonistic properties on ERa (in words) ([3]; transient transfection): showed antagonistic properties
IC50 [4, 12]: 6.7 µM
Antagonistic properties on ERRb (in words) ([4]; transient transfection): showed antagonistic properties
Antagonism of constitutive activity of ERRα (in words) ([5]; SF1 binding site reporter, FIG. 1): antagonists of ERRα
IC50 ([5]; pSG5-ERRα, 24 h, mean ± SD): 8.3 ± 0.4 µM
IC50 [6, 12]: 8 µM
Antagonistic properties on ERRg (in words) ([6]; transient transfection): showed antagonistic properties
Structure (SMILES): COc1ccc(C(=O)/C=C/c2ccccc2OC)c(O)c1 [7-2]

Structure (SMILES): O=C(/C=C/c1ccc(O)cc1)c1ccc(O)cc1O [Compound No. 3-15, 4,2′,4′-trihydroxychalcone]
Agonist activity on ERRα [7]: agonist of all three forms of ERRs
Agonist activity on ERRβ [8]: agonist of all three forms of ERRs
Agonist activity on ERRγ [9]: agonist of all three forms of ERRs

Structure (SMILES): CC/C(=C(/c1ccc(O)cc1)c1ccc(OCCN(C)C)cc1)c1ccccc1 [E-4-OHT]
Affinity for ER relative to Z-4-OHT [10]: about 5%
